Measurements: publication PMC7374424, “Ion-Selective Carbon Nanotube Field-Effect Transistors for Monitoring Drug Effects on Nicotinic Acetylcholine Receptor Activation in Live Cells” (Sensors (Basel, Switzerland), 2020)
Read-outs that look alike come from different tables or passages of the source.

Assays:
[1] = system: nicotinic acetylcholine receptor (nAChR), native in PC12 cells, subunits not specified; experiment: inhibition of […] nicotine-induced K+ release from PC12 cells, ion-selective CNT-FET; format: cell-based, Rattus norvegicus
[2] = system: nicotinic acetylcholine receptor (nAChR), native in PC12 cells, subunits not specified; experiment: agonist-induced K+ release from PC12 cells by ion-selective CNT-FET, Hill fit; format: cell-based, Rattus norvegicus
[3] = system: nicotinic acetylcholine receptor (nAChR), native in PC12 cells, subunits not specified

Compound | IC50 [1] | also measured
C[N+](C)(C)CCCCCC[N+](C)(C)C [HB, hexamethonium] | 4.58 ± 0.85 pIC50 | –
CNC1(C)C2CCC(C2)C1(C)C (stereo not shown) [MH, mecamylamine] | 5.74 ± 0.54 pIC50 | –
